Drawing on patent US20230340011A1 (Asteroid Therapeutics, priority 2022, published 2023), this text covers EC50 and IC50 for 18 molecules.

One may read the IC50 as the concentration at which inhibition is half-maximal. Read a low IC50 as inhibition by little substance.

Read-outs that look alike come from different tables or passages of the source.

The target in experiment [1] is LXRβ (Homo sapiens (Human), UniProt P55055). Put plainly: In vitro assay LXRβ: PathHunter NHR CHO cells, LXRβ / Steroid Receptor Co-activator Peptide enzyme fragment complementation. In kind it is cell-based. The method in brief:
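Enzyme fragment complementation read-out: CHO cells stably expressing ProLink-tagged full-length human LXRβ plus nuclear enzyme acceptor–SRCP fusion, seeded and held overnight at 37° C. Medium with charcoal-dextran filtered serum; final vehicle 1%. Chemiluminescence measured after signal generation.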

Experiment [2] concerns the target SREBP-2 (Homo sapiens (Human), UniProt Q12772). Put plainly: In vitro assay SREBP-2: PathHunter U2OS SREBP-2 Nuclear Translocation Cell Line, U18666A-stimulated. The settings on record: PathHunter U2OS SREBP-2 nuclear translocation cells, U18666A 10 μM, overnight (16 hours). In kind it is cell-based.
Where [3] appears, read: PathHunter NHR CHO cells, full-length human LXRβ and SRCP, chemiluminescent signal, read-out: LXRβ PPI.

LXRβ, sequence (P55055 whole entry, the tested form may be a part): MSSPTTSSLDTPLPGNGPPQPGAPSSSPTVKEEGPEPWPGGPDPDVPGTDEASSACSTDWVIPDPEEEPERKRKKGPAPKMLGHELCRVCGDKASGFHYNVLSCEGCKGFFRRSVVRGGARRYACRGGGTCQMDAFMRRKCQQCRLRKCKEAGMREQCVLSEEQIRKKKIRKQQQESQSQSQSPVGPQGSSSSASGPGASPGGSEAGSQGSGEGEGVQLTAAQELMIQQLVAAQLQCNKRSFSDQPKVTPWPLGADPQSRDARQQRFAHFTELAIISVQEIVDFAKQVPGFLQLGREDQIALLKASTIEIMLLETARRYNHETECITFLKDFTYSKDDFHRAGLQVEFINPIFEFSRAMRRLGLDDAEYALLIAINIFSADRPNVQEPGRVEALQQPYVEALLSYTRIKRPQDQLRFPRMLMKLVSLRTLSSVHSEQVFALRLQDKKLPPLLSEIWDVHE

With `C[C@H](CCc1ncccc1C(C)(C)O)[C@H]1CC[C@H]2[C@@H]3CC=C4C[C@@H](O)CC[C@]4(C)[C@H]3CC[C@]12C` [Example 248, (3S,8S,9S,10R,13R,14S,17R)-17-((R)-4-(3-(2-hydroxypropan-2-yl)pyridin-2-yl)butan-2-yl)-10,13-dimethyl-2,3,4,7,8,9,10,11,12,13,14,15,16,17-tetradecahydro-1H-cyclopenta[a]phenanthren-3-ol], in experiment [1], the EC50 is below 250 nM. Also, in experiment [2], the IC50 was below 250 nM.
Regarding `CC(O)c1cccnc1CC[C@@H](C)[C@H]1CC[C@H]2[C@@H]3CC=C4C[C@@H](O)CC[C@]4(C)[C@H]3CC[C@]12C` (stereo partly drawn) [Example 249, (3S,8S,9S,10R,13R,14S,17R)-17-((2R)-4-(3-(1-hydroxyethyl)pyridin-2-yl)butan-2-yl)-10,13-dimethyl-2,3,4,7,8,9,10,11,12,13,14,15,16,17-tetradecahydro-1H-cyclopenta[a]phenanthren-3-ol], the EC50 in experiment [1] (setting [3]) is below 250 nM. In addition, the IC50 in experiment [2] was below 250 nM.
For the molecule `C[C@H](CCc1ncccc1CO)[C@H]1CC[C@H]2[C@@H]3CC=C4C[C@@H](O)CC[C@]4(C)[C@H]3CC[C@]12C` [Example 250, (3S,8S,9S,10R,13R,14S,17R)-17-((R)-4-(3-(hydroxymethyl)pyridin-2-yl)butan-2-yl)-10,13-dimethyl-2,3,4,7,8,9,10,11,12,13,14,15,16,17-tetradecahydro-1H-cyclopenta[a]phenanthren-3-ol], the EC50 in experiment [1] (setting [3]) is below 250 nM. Further, in experiment [2], the IC50 was below 250 nM.
Consider `CNC(=O)c1cccnc1OC[C@@H](C)[C@H]1CC[C@H]2[C@@H]3CC=C4C[C@@H](O)CC[C@]4(C)[C@H]3CC[C@]12C` [Example 253, 2-((S)-2-((3S,8S,9S,10R,13S,14S,17R)-3-hydroxy-10,13-dimethyl-2,3,4,7,8,9,10,11,12,13,14,15,16,17-tetradecahydro-1H-cyclopenta[a]phenanthren-17-yl)propoxy)-N-methylnicotinamide], for which, in experiment [1] (setting [3]), the EC50 is above 10000 nM. Moreover, in experiment [2], the IC50 was below 250 nM.
On the same counts, the results for `CNC(=O)c1ccc(OC[C@@H](C)[C@H]2CC[C@H]3[C@@H]4CC=C5C[C@@H](O)CC[C@]5(C)[C@H]4CC[C@]23C)nc1` [Example 255, 6-((S)-2-((3S,8S,9S,10R,13S,14S,17R)-3-hydroxy-10,13-dimethyl-2,3,4,7,8,9,10,11,12,13,14,15,16,17-tetradecahydro-1H-cyclopenta[a]phenanthren-17-yl)propoxy)-N-methylnicotinamide] are above 10000 nM and below 250 nM.
On the same counts, the results for `C[C@H](COc1ncccc1CO)[C@H]1CC[C@H]2[C@@H]3CC=C4C[C@@H](O)CC[C@]4(C)[C@H]3CC[C@]12C` [Example 257, (3S,8S,9S,10R,13S,14S,17R)-17-((S)-1-((3-(hydroxymethyl)pyridin-2-yl)oxy)propan-2-yl)-10,13-dimethyl-2,3,4,7,8,9,10,11,12,13,14,15,16,17-tetradecahydro-1H-cyclopenta[a]phenanthren-3-ol] are above 10000 nM and below 250 nM.
On the same counts, the results for `C[C@H](COc1cc(CO)ccn1)[C@H]1CC[C@H]2[C@@H]3CC=C4C[C@@H](O)CC[C@]4(C)[C@H]3CC[C@]12C` [Example 258, (3S,8S,9S,10R,13S,14S,17R)-17-((S)-1-((4-(hydroxymethyl)pyridin-2-yl)oxy)propan-2-yl)-10,13-dimethyl-2,3,4,7,8,9,10,11,12,13,14,15,16,17-tetradecahydro-1H-cyclopenta[a]phenanthren-3-ol] are above 10000 nM and below 250 nM.
As to `C[C@H](COc1cccc(CO)n1)[C@H]1CC[C@H]2[C@@H]3CC=C4C[C@@H](O)CC[C@]4(C)[C@H]3CC[C@]12C` [Example 260, (3S,8S,9S,10R,13S,14S,17R)-17-((S)-1-((6-(hydroxymethyl)pyridin-2-yl)oxy)propan-2-yl)-10,13-dimethyl-2,3,4,7,8,9,10,11,12,13,14,15,16,17-tetradecahydro-1H-cyclopenta[a]phenanthren-3-ol], the EC50 in experiment [1] (setting [3]) is above 10000 nM. The IC50 in experiment [2] is below 250 nM.
On the same counts, the results for `Cc1cccnc1OC[C@@H](C)[C@H]1CC[C@H]2[C@@H]3CC=C4C[C@@H](O)CC[C@]4(C)[C@H]3CC[C@]12C` [Example 261, (3S,8S,9S,10R,13S,14S,17R)-10,13-dimethyl-17-((S)-1-((3-methylpyridin-2-yl)oxy)propan-2-yl)-2,3,4,7,8,9,10,11,12,13,14,15,16,17-tetradecahydro-1H-cyclopenta[a]phenanthren-3-ol] are above 10000 nM and below 250 nM.
On the same counts, the results for `Cc1cccc(OC[C@@H](C)[C@H]2CC[C@H]3[C@@H]4CC=C5C[C@@H](O)CC[C@]5(C)[C@H]4CC[C@]23C)n1` [Example 264, (1R,3aS,3bS,7S,9aR,9bS,11aS)-9a,11a-dimethyl-1-[(2S)-1-[(6-methylpyridin-2-yl)oxy]propan-2-yl]-1H,2H,3H,3aH,3bH,4H,6H,7H,8H,9H,9aH,9bH,10H,11H,11aH-cyclopenta[a]phenanthren-7-ol] are above 10000 nM and 250 to 1000 nM.
On the same counts, the results for `Cc1ncccc1O[C@@H](C)[C@H]1CC[C@H]2[C@@H]3CC=C4C[C@@H](O)CC[C@]4(C)[C@H]3CC[C@]12C` [Example 274, (1S,3aS,3bS,7S,9aR,9bS,11aS)-9a,11a-dimethyl-1-[(1S)-1-[(2-methylpyridin-3-yl)oxy]ethyl]-1H,2H,3H,3aH,3bH,4H,6H,7H,8H,9H,9aH,9bH,10H,11H,11aH-cyclopenta[a]phenanthren-7-ol] are above 10000 nM and 250 to 1000 nM.
In the case of `CC[C@]1(O)CC[C@@]2(C)C(=CC[C@H]3[C@@H]4CC[C@H]([C@H](C)CCC(=O)N5CCN(C(=O)OC)CC5)[C@@]4(C)CC[C@@H]32)C1` [Example 284, methyl 4-[(4R)-4-[(1R,3aS,3bS,7S,9aR,9bS,11aR)-7-ethyl-7-hydroxy-9a,11a-dimethyl-1H,2H,3H,3aH,3bH,4H,6H,7H,8H,9H,9aH,9bH,10H,11H,11aH-cyclopenta[a]phenanthren-1-yl]pentanoyl]piperazine-1-carboxylate], in experiment [1] (setting [3]), the EC50 was above 10000 nM. The molecule also yielded an IC50 in experiment [2] of 1000 to 10000 nM.
For the molecule `COC(=O)N1CCN(C(=O)CC[C@@H](C)[C@H]2CC[C@H]3[C@@H]4CC=C5C[C@](O)(C(F)(F)F)CC[C@]5(C)[C@H]4CC[C@]23C)CC1` [Example 285, methyl 4-((R)-4-((3S,8S,9S,10R,13R,14S,17R)-3-hydroxy-10,13-dimethyl-3-(trifluoromethyl)-2,3,4,7,8,9,10,11,12,13,14,15,16,17-tetradecahydro-1H-cyclopenta[a]phenanthren-17-yl)pentanoyl)piperazine-1-carboxylate], in experiment [1] (setting [3]), the EC50 is above 10000 nM. Further, the IC50 in experiment [2] is 1000 to 10000 nM.
As for `C[C@H](CCC(=O)N1CCC(OC(=O)N(C)C)CC1)[C@H]1CC[C@H]2[C@@H]3CC=C4C[C@@H](O)CC[C@]4(C)[C@H]3CC[C@]12C` [Example 286, 1-((R)-4-((3S,8S,9S,10R,13R,14S,17R)-3-hydroxy-10,13-dimethyl-2,3,4,7,8,9,10,11,12,13,14,15,16,17-tetradecahydro-1H-cyclopenta[a]phenanthren-17-yl)pentanoyl)piperidin-4-yl dimethylcarbamate], the EC50 in experiment [1] (setting [3]) was above 10000 nM. In addition, the concentration for half-maximal inhibition (IC50) in experiment [2] is below 250 nM.
On the same counts, the results for `C[C@H](CCC(=O)N1CCC(N(C)C(=O)c2ccncc2)CC1)[C@H]1CC[C@H]2[C@@H]3CC=C4C[C@@H](O)CC[C@]4(C)[C@H]3CC[C@]12C` [Example 288, N-(1-((R)-4-((3S,8S,9S,10R,13R,14S,17R)-3-hydroxy-10,13-dimethyl-2,3,4,7,8,9,10,11,12,13,14,15,16,17-tetradecahydro-1H-cyclopenta[a]phenanthren-17-yl)pentanoyl)piperidin-4-yl)-N-methylisonicotinamide] are above 10000 nM and 250 to 1000 nM.
On the same counts, the results for `C[C@H](CCC(=O)N1CCC(N(C)S(C)(=O)=O)CC1)[C@H]1CC[C@H]2[C@@H]3CC=C4C[C@@H](O)CC[C@]4(C)[C@H]3CC[C@]12C` [Example 289, N-{1-[(4R)-4-[(1R,3aS,3bS,7S,9aR,9bS,11aR)-7-hydroxy-9a,11a-dimethyl-1H,2H,3H,3aH,3bH,4H,6H,7H,8H,9H,9aH,9bH,10H,11H,11aH-cyclopenta[a]phenanthren-1-yl]pentanoyl]piperidin-4-yl}-N-methylmethanesulfonamide] are above 10000 nM and 250 to 1000 nM.
Consider `C[C@H](CCC(=O)N1CCC(S(=O)(=O)N(C)C)CC1)[C@H]1CC[C@H]2[C@@H]3CC=C4C[C@@H](O)CC[C@]4(C)[C@H]3CC[C@]12C` [Example 290, 1-((R)-4-((3S,8S,9S,10R,13R,14S,17R)-3-hydroxy-10,13-dimethyl-2,3,4,7,8,9,10,11,12,13,14,15,16,17-tetradecahydro-1H-cyclopenta[a]phenanthren-17-yl)pentanoyl)-N,N-dimethylpiperidine-4-sulfonamide], for which the EC50 in experiment [1] (setting [3]) was above 10000 nM. In addition, the IC50 in experiment [2] was below 250 nM.
As for `Cc1noc(C(=O)N2CCN(C(=O)CC[C@@H](C)[C@H]3CC[C@H]4[C@@H]5CC=C6C[C@@H](O)CC[C@]6(C)[C@H]5CC[C@]34C)CC2)n1` [Example 292, (R)-4-((3S,8S,9S,10R,13R,14S,17R)-3-hydroxy-10,13-dimethyl-2,3,4,7,8,9,10,11,12,13,14,15,16,17-tetradecahydro-1H-cyclopenta[a]phenanthren-17-yl)-1-(4-(3-methyl-1,2,4-oxadiazole-5-carbonyl)piperazin-1-yl)pentan-1-one], the EC50 in experiment [1] (setting [3]) is above 10000 nM. The molecule also came in with an IC50 in experiment [2] below 250 nM.
